Type in all cases: cell-based
The target in assay [1] is T1, human EGFR exon 20 H773_V774insNPH (Homo sapiens, UniProt P00533, INS773NPH).
T1 construct: host or cells: Ba/F3
The assay is described as follows: EGFR Exon20 NPH insertion cellular phosphorylation inhibition (MSD pEGFR Y1068/total EGFR).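 Also: IL3-independent Ba/F3 cells with constitutively phosphorylated EGFR, compound exposure at 37 °C under 5% CO2, electrochemiluminescent MSD measurement of the p-EGFR to total EGFR ratio.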 The settings on record: Ba/F3 EGFR NPH ins cells, 4 h compound, p-EGFR(Y1068)/total EGFR.

Assay [2] deals with T2, human EGFR exon 20 V769_D770insASV (Homo sapiens, UniProt P00533, INS769ASV).
T2 construct: expressed in transfected cells; host or cells: Ba/F3 (DSMZ ACC-300), lentiviral transduction, puromycin selection, IL3 depletion
The assay is described as follows: EGFR Exon20 ASV insertion cellular phosphorylation inhibition (MSD pEGFR Y1068/total EGFR).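 Also: electrochemiluminescent readout on an MSD SECTOR Imager, IL3-independent transduced cells in medium with 1% FBS, compound concentration series at 37 °C and 5% CO2.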 The settings on record: Ba/F3 EGFR ASV ins cells, 4 h compound, p-EGFR(Y1068)/total EGFR.

In the next assay the target is T3, EGFR L858R&T790M (Homo sapiens, UniProt P00533, L858R/T790M).
T3 construct: host or cells: NCI-H1975
Kind of assay: EGFR L858R and T790M cellular phosphorylation inhibition in NCI-H1975 (MSD).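 Also: phosphorylated and total EGFR detected by electrochemiluminescence, cells exposed to compound in medium containing 1% FBS at 37 °C.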 The settings on record: NCI-H1975 cells, 4 h compound, p-EGFR(Y1068)/total EGFR; read-out: EGFR L858R and T790M mutation IC50.

The target of assay [3] is T4, human Her2 exon 20 insertion mutation YVMA (Homo sapiens, UniProt P04626, INS775YVMA).
T4 construct: expressed in transfected cells; host or cells: NIH-3T3, lentiviral transduction, puromycin selection
Kind of assay: Her2 Exon 20 YVMA insertion cellular phosphorylation inhibition (MSD p-Her2 Y1248/total Her2).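 Also: lentivirally transduced NIH-3T3 cells in 1% FBS medium, electrochemiluminescent MSD read-out, graded compound concentrations at 37 °C.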 The settings on record: Her2 YVMAins cells, 4 h compound.

For another assay, the target named is T5, WT EGFR (Homo sapiens, UniProt P00533).
T5 construct: host or cells: A-431
Kind of assay: WT EGFR cellular phosphorylation inhibition in A-431 (hEGF stimulated, MSD).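 Also: electrochemiluminescence read-out of EGFR Tyr1068 phosphorylation expressed as ratio to total EGFR, cells kept in medium with 1% FBS, compounds tested as a concentration series.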 The settings on record: A431 cells, 4 h compound, then 100 ng/ml hEGF 10 min.

Another assay concerns Ba/F3 EGFR NPH ins cells. Kind of assay: Cell proliferation, Ba/F3 EGFR NPH ins (CellTiter-Glo, 72 h).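 Also: IL3-independent cells carrying constitutively phosphorylated EGFR, compound dilution series, viable cells quantified by ATP luminescence, growth relative to DMSO wells after subtracting pre-dosing (day 0) baseline.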 The settings on record: Ba/F3 EGFR, 72 h, Ba/F3 EGFR NPH ins, 72 h proliferation; read-out: EGFR Exon20 NPH insertion GI50.
In a further assay the test system is Ba/F3 EGFR ASV ins cells. The assay is described as follows: Cell proliferation, Ba/F3 EGFR ASV ins (CellTiter-Glo, 72 h).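 Also: IL3-independent Ba/F3 cells transduced with EGFR V769_D770insASV, cellular ATP luminescence after compound exposure, growth relative to DMSO control with the day-0 baseline reading subtracted.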 The settings on record: Ba/F3 EGFR, 72 h, Ba/F3 EGFR ASV ins, 72 h proliferation; read-out: EGFR Exon20 ASV insertion GI50.
Assay [4] relates to NCI-H1975 EGFR L858R/T790M cells. The assay is described as follows: Cell proliferation, NCI-H1975 EGFR L858R/T790M (CellTiter-Glo, 72 h).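 Also: viable cells quantified by luciferase-based ATP luminescence, proliferation expressed relative to DMSO-treated wells (100%) after subtracting a parallel plate read at the time of dosing.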 The settings on record: Homo sapiens, NCI-H1975, 72 h, NCI-H1975, 72 h proliferation; read-out: EGFR L858R and T790M mutation GI50.
The subject of assay [5] is Her2 exon 20 insertion YVMA transduced NIH-3T3 cell line. Kind of assay: Cell proliferation, Her2 YVMAins NIH-3T3 (CellTiter-Glo, 72 h).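 Also: viable cells quantified by ATP luminescence, growth over a day-zero baseline plate expressed as percent of DMSO control growth, compound dilution series in 10% FBS medium.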 The settings on record: Mus musculus, NIH3T3, 72 h, Her2 YVMAins cells, 72 h proliferation; read-out: Her2 Exon 20 YVMA insertion GI50.
The next assay concerns WT EGFR cell line A-431. Kind of assay: Cell proliferation, WT EGFR A431 (CellTiter-Glo, 72 h).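 Also: proliferation from a luminescent ATP viability signal, expressed as 100 × (treated minus time-zero plate) over (DMSO control minus time-zero plate), cells grown with 10% FBS.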 The settings on record: Homo sapiens, A-431, 72 h, A431, 72 h proliferation; read-out: EGFR WT A431 GI50.
The subject of the next assay is OCI-LY-10 cells. The assay is described as follows: BTK (wt) cell proliferation, OCI-LY-10 (CellTiter-Glo, 72 h).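 Also: viable cells quantified via cellular ATP luminescence, proliferation given as percent of DMSO control after subtracting a duplicate plate read at time of dosing.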 The settings on record: Homo sapiens, OCI-Ly10, 72 h, OCI-LY-10 cells, 72 h, CellTiter-Glo; read-out: BTK WT OCI-LY-10 GI50.
A further assay relates to TMD-8 cells. Kind of assay: BTK (wt) cell proliferation, TMD-8 (CellTiter-Glo, 72 h).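 Also: viable cells quantified by ATP-based luminescence, proliferation expressed as percent of DMSO control after subtracting a time-zero baseline plate read at dosing.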 The settings on record: Homo sapiens, TMD8, 72 h, TMD-8 cells, 72 h, CellTiter-Glo; read-out: BTK WT TMD-8 GI50.
In another assay the test system is Ri-1 cells. Kind of assay: BTK (wt) cell proliferation, Ri-1 (CellTiter-Glo, 72 h).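 Also: viable cells quantified as cellular ATP luminescence, proliferation normalized to a time-zero plate and the DMSO control, compounds tested across a dilution series.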 The settings on record: Ri-1, 72 h, Ri-1 cells, 72 h, CellTiter-Glo; read-out: BTK WT Ri-1 GI50.
A further assay deals with DB cells. Kind of assay: BTK (wt) cell proliferation, DB (CellTiter-Glo, 72 h).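 Also: DB cells in 384-well plates given a dilution series of compound, viable cells read by ATP luminescence, growth expressed versus DMSO control after subtracting a time-zero plate reading.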 The settings on record: Homo sapiens, DB, DB cells, CellTiter-Glo, read-out: Non-BCR activated DB GI50.

The structures appear in SMILES notation.

The text below walks through data of US20230293535A1, “ERBB/BTK INHIBITORS” (Dizal (Jiangsu) Pharmaceutical Co., Ltd., priority 2018, published 2023).

T2 sequence (P00533 with tags, fused parts or gaps INS769ASV): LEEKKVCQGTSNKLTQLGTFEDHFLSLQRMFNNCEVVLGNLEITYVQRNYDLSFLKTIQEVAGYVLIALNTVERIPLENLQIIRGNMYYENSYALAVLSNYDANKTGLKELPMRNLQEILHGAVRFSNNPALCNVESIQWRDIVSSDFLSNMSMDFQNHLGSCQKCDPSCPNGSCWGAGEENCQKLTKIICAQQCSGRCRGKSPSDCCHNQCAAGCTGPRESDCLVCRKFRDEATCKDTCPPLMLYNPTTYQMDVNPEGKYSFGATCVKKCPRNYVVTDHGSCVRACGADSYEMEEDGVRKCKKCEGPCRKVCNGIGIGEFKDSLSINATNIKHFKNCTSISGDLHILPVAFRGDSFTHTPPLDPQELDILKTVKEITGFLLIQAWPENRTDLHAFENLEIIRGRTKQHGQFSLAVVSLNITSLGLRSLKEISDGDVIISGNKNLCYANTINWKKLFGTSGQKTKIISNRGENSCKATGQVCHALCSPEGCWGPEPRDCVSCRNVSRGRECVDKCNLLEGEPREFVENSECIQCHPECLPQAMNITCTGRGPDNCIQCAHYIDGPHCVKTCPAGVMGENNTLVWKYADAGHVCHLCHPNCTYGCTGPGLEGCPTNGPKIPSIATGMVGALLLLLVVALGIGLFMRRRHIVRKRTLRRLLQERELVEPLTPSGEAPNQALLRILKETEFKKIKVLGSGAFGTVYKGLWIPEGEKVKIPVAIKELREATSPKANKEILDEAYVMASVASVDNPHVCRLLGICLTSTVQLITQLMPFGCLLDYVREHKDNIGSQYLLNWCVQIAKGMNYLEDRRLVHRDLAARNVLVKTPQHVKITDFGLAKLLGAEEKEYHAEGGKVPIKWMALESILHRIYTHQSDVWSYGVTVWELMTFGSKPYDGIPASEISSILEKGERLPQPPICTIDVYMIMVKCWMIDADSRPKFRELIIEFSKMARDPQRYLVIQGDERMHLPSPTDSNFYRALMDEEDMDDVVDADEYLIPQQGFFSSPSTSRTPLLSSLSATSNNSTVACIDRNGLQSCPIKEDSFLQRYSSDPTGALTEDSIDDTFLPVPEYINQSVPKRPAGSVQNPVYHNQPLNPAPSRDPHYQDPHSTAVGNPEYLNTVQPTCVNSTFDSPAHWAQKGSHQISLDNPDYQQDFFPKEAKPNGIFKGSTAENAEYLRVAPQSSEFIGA
T5 sequence (P00533 25-1210): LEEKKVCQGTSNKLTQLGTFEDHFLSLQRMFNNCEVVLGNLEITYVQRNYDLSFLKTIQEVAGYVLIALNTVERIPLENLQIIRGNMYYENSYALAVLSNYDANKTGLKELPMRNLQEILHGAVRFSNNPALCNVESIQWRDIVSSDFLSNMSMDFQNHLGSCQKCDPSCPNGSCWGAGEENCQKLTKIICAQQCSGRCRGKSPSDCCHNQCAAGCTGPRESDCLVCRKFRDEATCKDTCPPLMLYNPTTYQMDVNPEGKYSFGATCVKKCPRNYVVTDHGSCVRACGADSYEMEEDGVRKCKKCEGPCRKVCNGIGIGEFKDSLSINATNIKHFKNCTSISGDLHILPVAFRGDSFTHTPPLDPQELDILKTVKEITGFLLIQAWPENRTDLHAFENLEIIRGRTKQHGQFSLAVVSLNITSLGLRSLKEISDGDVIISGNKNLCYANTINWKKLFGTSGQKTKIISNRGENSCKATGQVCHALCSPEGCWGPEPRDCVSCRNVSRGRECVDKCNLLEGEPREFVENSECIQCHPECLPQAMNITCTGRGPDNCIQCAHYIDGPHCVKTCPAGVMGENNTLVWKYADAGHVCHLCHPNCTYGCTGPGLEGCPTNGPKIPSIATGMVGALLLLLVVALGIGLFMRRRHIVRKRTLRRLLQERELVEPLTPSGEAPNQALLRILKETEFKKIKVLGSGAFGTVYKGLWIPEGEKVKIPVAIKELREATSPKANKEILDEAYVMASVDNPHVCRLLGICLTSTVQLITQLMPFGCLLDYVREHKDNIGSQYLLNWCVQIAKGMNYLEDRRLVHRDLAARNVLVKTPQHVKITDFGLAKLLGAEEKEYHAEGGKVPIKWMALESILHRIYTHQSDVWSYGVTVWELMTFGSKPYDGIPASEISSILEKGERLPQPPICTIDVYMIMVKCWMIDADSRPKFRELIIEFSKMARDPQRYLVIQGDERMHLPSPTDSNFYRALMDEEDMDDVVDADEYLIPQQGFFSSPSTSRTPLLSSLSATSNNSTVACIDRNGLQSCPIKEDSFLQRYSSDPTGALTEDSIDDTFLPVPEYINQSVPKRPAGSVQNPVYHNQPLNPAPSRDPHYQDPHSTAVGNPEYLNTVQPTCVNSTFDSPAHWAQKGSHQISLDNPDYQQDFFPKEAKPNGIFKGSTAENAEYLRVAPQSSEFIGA
T3 sequence (P00533 25-1210 T790M/L858R): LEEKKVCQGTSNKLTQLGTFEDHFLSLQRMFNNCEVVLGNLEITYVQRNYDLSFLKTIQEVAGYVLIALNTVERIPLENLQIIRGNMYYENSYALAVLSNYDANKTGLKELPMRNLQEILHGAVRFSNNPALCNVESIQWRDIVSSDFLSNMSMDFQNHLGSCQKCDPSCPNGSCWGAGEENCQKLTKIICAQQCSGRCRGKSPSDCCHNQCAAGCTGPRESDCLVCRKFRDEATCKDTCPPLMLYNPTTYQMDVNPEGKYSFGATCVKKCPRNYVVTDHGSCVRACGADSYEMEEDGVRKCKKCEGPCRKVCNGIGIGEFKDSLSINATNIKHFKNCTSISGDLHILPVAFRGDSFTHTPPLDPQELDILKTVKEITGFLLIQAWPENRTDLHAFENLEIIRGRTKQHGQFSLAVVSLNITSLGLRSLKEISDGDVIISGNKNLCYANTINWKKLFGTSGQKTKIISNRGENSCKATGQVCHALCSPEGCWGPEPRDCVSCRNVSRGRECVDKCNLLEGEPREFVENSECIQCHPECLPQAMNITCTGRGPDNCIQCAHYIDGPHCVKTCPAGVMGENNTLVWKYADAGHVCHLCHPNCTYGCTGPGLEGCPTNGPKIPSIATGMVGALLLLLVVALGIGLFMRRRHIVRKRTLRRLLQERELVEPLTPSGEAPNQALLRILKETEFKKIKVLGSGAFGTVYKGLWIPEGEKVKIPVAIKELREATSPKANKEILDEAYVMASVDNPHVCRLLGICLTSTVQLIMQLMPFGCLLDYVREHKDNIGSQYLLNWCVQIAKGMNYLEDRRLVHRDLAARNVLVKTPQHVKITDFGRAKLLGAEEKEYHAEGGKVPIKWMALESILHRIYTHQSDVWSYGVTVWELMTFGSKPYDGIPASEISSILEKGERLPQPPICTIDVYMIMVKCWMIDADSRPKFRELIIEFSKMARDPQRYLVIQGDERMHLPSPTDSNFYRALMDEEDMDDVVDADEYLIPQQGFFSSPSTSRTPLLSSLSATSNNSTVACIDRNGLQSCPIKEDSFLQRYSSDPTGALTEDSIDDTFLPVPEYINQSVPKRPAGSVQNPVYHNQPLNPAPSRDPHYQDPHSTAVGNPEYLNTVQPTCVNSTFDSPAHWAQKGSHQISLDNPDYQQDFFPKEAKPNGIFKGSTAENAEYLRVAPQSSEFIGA
T1 sequence (P00533 with tags, fused parts or gaps INS773NPH): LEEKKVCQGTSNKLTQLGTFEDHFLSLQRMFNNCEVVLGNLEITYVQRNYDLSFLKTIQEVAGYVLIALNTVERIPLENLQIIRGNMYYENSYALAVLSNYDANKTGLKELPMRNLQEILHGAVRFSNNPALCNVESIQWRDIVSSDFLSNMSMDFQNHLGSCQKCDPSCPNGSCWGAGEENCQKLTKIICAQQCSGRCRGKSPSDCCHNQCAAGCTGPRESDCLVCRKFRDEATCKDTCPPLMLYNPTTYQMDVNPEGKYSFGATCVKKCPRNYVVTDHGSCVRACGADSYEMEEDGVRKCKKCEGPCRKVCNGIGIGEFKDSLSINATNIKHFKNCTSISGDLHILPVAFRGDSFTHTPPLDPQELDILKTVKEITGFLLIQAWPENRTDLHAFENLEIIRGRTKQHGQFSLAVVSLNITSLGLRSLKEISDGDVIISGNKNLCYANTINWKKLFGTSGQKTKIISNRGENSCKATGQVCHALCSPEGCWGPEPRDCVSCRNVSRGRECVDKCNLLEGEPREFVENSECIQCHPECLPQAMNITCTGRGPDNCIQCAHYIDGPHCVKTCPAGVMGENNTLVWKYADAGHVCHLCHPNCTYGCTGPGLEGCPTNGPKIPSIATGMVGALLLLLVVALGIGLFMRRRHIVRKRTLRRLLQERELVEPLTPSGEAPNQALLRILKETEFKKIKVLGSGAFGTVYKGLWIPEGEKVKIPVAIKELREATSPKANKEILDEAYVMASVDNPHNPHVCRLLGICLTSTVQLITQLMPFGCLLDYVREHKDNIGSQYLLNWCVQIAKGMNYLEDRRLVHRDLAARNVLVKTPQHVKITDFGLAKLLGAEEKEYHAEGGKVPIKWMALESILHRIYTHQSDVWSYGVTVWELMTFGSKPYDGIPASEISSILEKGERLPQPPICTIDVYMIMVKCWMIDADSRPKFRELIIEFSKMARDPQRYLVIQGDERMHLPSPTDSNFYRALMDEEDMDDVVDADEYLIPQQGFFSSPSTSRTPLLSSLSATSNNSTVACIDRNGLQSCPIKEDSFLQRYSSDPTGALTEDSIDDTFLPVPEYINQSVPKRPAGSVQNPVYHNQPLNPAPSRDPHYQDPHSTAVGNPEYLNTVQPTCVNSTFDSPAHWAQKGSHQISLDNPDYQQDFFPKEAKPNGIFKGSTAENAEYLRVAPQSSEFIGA

On to `C=CC(=O)Nc1cc(Nc2ncnc(Nc3cc(Cl)c(F)cc3C(C)(C)O)n2)c(OC)cc1N1CCOC[C@@H]1CN(C)C` [Compound 40, (S)-N-(5-(4-(5-chloro-4-fluoro-2-(2-hydroxypropan-2-yl)phenylamino)-1,3,5-triazin-2-ylamino)-2-(3-((dimethylamino)methyl)morpholino)-4-methoxyphenyl)acrylamide], for which the half-inhibitory concentration (IC50) worked out at 10.9 nM in [1]; 13 nM in assay [2]; 0.9 nM on EGFR L858R&T790M; 5 nM in assay [3]; 19.3 nM against WT EGFR. Besides, the 50% growth inhibitory concentration (GI50) with Ba/F3 EGFR NPH ins cells is 22 nM; with Ba/F3 EGFR ASV ins cells, 25.7 nM; in [4] it was 2.1 nM; in assay [5], 43.4 nM; in the assay on WT EGFR cell line A-431, 13.6 nM; with OCI-LY-10 cells, 15.1 nM. Moreover, the values for the GI50 in the assay on TMD-8 cells, in the assay on Ri-1 cells and with DB cells were 15.1 nM, 11.9 nM and more than 3000 nM, respectively.

Consider `C=CC(=O)Nc1cc(Nc2ncnc(Nc3cc(F)c(Cl)cc3C(C)(C)O)n2)c(OC)cc1N1CC[C@@H]2CN(C)C[C@@H]21` [Compound 41, N-(5-(4-(4-chloro-5-fluoro-2-(2-hydroxypropan-2-yl)phenylamino)-1,3,5-triazin-2-ylamino)-4-methoxy-2-((3aR,6aR)-5-methylhexahydropyrrolo[3,4-b]pyrrol-1 (2H)-yl)phenyl)acrylamide], for which the IC50 worked out at 12.6 nM in [1]; 6.7 nM in assay [2]; 0.8 nM at EGFR L858R&T790M; 9 nM in assay [3]; 13.1 nM against WT EGFR. Further, the GI50 with Ba/F3 EGFR NPH ins cells came out at 23.2 nM; in the assay on Ba/F3 EGFR ASV ins cells, 21.8 nM; in assay [4], 1.6 nM; in [5] it was 52.1 nM; with WT EGFR cell line A-431, 13.8 nM; in the assay with OCI-LY-10 cells it was 1.57 nM. The GI50 with TMD-8 cells is 4.57 nM; in the assay with Ri-1 cells, 4.92 nM; in the assay with DB cells it was more than 3000 nM.

In the case of `C=CC(=O)Nc1cc(Nc2ncnc(Nc3cc(F)c(Cl)cc3C(C)(C)O)n2)c(OC)cc1N1CCC[C@@H]1CN(C)C` [Compound 43, (R)-N-(5-(4-(4-chloro-5-fluoro-2-(2-hydroxypropan-2-yl)phenylamino)-1,3,5-triazin-2-ylamino)-2-(2-((dimethylamino)methyl)pyrrolidin-1-yl)-4-methoxyphenyl)acrylamid], the IC50 in assay [1] was determined as 3.9 nM; in assay [2], 5.9 nM; on EGFR L858R&T790M it was 0.3 nM; in assay [3] it was 2.9 nM; at WT EGFR, 8.1 nM. For the same compound, the 50% growth inhibitory concentration (GI50) was 17.4 nM in the assay with Ba/F3 EGFR NPH ins cells; 9.3 nM in the assay with Ba/F3 EGFR ASV ins cells; 1.2 nM in [4]; 27.6 nM in assay [5]; 4.3 nM in the assay with WT EGFR cell line A-431; 7.6 nM with OCI-LY-10 cells. Besides, the GI50 with TMD-8 cells was 13.6 nM; in the assay with Ri-1 cells, 28.5 nM; in the assay with DB cells, more than 3000 nM.

Turning to `C=CC(=O)Nc1cc(Nc2ncnc(Nc3cc(Cl)c(F)cc3C(C)(C)O)n2)c(OC)cc1N(C)C[C@@H]1CCCN1C` [Compound 44, (S)-N-(5-(4-(5-chloro-4-fluoro-2-(2-hydroxypropan-2-yl)phenylamino)-1,3,5-triazin-2-ylamino)-4-methoxy-2-(methyl((1-methylpyrrolidin-2-yl)methyl)amino)phenyl) acrylamide], the IC50 in [1] was 6.8 nM; in assay [2], 12.5 nM; at EGFR L858R&T790M, 0.5 nM; in [3], 8 nM; against WT EGFR, 30.9 nM. The GI50 amounted to 39 nM with Ba/F3 EGFR NPH ins cells; 29.8 nM in the assay with Ba/F3 EGFR ASV ins cells; 3.6 nM in assay [4]; 74.6 nM in assay [5]; 14.8 nM in the assay on WT EGFR cell line A-431; 6.75 nM with OCI-LY-10 cells. Moreover, the GI50 was 4.32 nM in the assay with TMD-8 cells, 10.4 nM with Ri-1 cells and more than 3000 nM in the assay with DB cells.
